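Tested at 5 concentrations; 48 h exposure; 96-well plates; endpoints linearly interpolated, else capped at highest concentration. Here, GI50 denotes the concentration required for 50% inhibition of growth. TGI: total growth inhibition.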
Assays:
Assay in all cases: NCI tumour cell line growth inhibition, 48 h
OVCAR-3 ovarian = test system: OVCAR-3 ovarian
SK-MEL-28 melanoma = test system: SK-MEL-28 melanoma
HCC-2998 colon = test system: HCC-2998 colon
HCT-116 colon = test system: HCT-116 colon
UACC-257 melanoma = test system: UACC-257 melanoma
TK-10 renal = test system: TK-10 renal
HOP-62 NSCLC = test system: HOP-62 NSCLC
NCI-H23 lung = test system: NCI-H23 lung
MDA-MB-435 = test system: MDA-MB-435
SF-539 CNS = test system: SF-539 CNS

## N#CCCCCCOCCOCCOCCOCCOCCCCCC#N
OVCAR-3 ovarian
  TGI: > 100 µM
SK-MEL-28 melanoma
  TGI: > 100 µM
HCC-2998 colon
  TGI: > 100 µM
HCT-116 colon
  TGI: > 100 µM
UACC-257 melanoma
  TGI: > 100 µM
TK-10 renal
  TGI: > 100 µM
HOP-62 NSCLC
  TGI: > 100 µM
NCI-H23 lung
  TGI: > 100 µM

## CCC(O)C1Cc2c(C)cc3c(c2O1)C(=O)c1ccccc1C3=O (stereo unspecified)
OVCAR-3 ovarian
  TGI: > 100 µM
SK-MEL-28 melanoma
  TGI: > 100 µM
HCC-2998 colon
  TGI: > 100 µM
HCT-116 colon
  TGI: > 100 µM
UACC-257 melanoma
  TGI: > 100 µM
TK-10 renal
  TGI: > 100 µM
HOP-62 NSCLC
  TGI: > 100 µM
NCI-H23 lung
  TGI: > 100 µM

## COc1ccc2c(O)c(/C=C3\N=Nc4ccccc43)oc2c1C[C@@H]1CCNC[C@H]1F
OVCAR-3 ovarian
  GI50: 1.99 µM
  TGI: 3.98 µM
MDA-MB-435
  GI50: 11.3 µM
  TGI: 24.4 µM
HCT-116 colon
  GI50: 1.65 µM
  TGI: 3.17 µM
UACC-257 melanoma
  GI50: 16.2 µM
  TGI: 32 µM
TK-10 renal
  GI50: 15 µM
  TGI: 29.4 µM
HOP-62 NSCLC
  GI50: 11.1 µM
  TGI: 24.6 µM
NCI-H23 lung
  GI50: 10.6 µM
  TGI: 24.6 µM
SF-539 CNS
  GI50: 1.6 µM
  TGI: 3.06 µM

## NC1CCCCC1N.O=[Se]([O-])[O-].[Pt+4] (stereo unspecified)
OVCAR-3 ovarian
  GI50: 17 µM
  TGI: > 100 µM
SK-MEL-28 melanoma
  GI50: 2.01 µM
  TGI: 32.9 µM
HCC-2998 colon
  GI50: 2.98 µM
  TGI: 11.1 µM
HCT-116 colon
  GI50: 0.236 µM
  TGI: > 45.2 µM
UACC-257 melanoma
  GI50: 2.18 µM
  TGI: > 64.8 µM
TK-10 renal
  GI50: 28.4 µM
  TGI: > 100 µM
HOP-62 NSCLC
  GI50: 2.52 µM
  TGI: > 51.4 µM
NCI-H23 lung
  GI50: 1.51 µM
  TGI: 17.1 µM
SF-539 CNS
  GI50: 1.18 µM
  TGI: 20.6 µM

## CCOC(=O)C(N=C(c1ccccc1)c1ccccc1)N(C(=O)OC(C)(C)C)C(=O)OC(C)(C)C (stereo unspecified)
OVCAR-3 ovarian
  TGI: > 100 µM
SK-MEL-28 melanoma
  TGI: > 100 µM
HCC-2998 colon
  TGI: > 100 µM
HCT-116 colon
  TGI: > 100 µM
UACC-257 melanoma
  TGI: > 100 µM
TK-10 renal
  TGI: > 100 µM
NCI-H23 lung
  TGI: > 100 µM
SF-539 CNS
  TGI: > 100 µM

## Clc1ccc(Nc2ccnc(N3CCN(c4ccnc5cc(Cl)ccc45)CC3)n2)cc1
OVCAR-3 ovarian
  GI50: 2.93 µM
  TGI: 9.87 µM
HCC-2998 colon
  GI50: 3.39 µM
  TGI: 9.63 µM
MDA-MB-435
  GI50: 1.86 µM
  TGI: 5.99 µM
HCT-116 colon
  GI50: 1.99 µM
  TGI: 6.38 µM
UACC-257 melanoma
  GI50: 3.05 µM
  TGI: 13.5 µM
TK-10 renal
  GI50: 3.43 µM
  TGI: 8.5 µM
HOP-62 NSCLC
  GI50: 3.1 µM
  TGI: 20.9 µM
NCI-H23 lung
  GI50: 4.32 µM
  TGI: 52.3 µM

## COc1ccc2cc(C(=O)/C=C/c3ccc(N(C)C)cc3)ccc2c1
OVCAR-3 ovarian
  GI50: > 100 µM
  TGI: > 100 µM
SK-MEL-28 melanoma
  GI50: > 100 µM
  TGI: > 100 µM
MDA-MB-435
  GI50: 93.1 µM
  TGI: > 100 µM
HCT-116 colon
  GI50: > 100 µM
  TGI: > 100 µM
UACC-257 melanoma
  GI50: 36.7 µM
  TGI: > 100 µM
TK-10 renal
  GI50: 43.9 µM
  TGI: > 100 µM
HOP-62 NSCLC
  GI50: > 100 µM
  TGI: > 100 µM
NCI-H23 lung
  GI50: 41.6 µM
  TGI: > 100 µM

## CC(=O)Nc1c(I)c(NC(C)=O)c(I)c(C(=O)O)c1I
OVCAR-3 ovarian
  GI50: > 100 µM
  TGI: > 100 µM
SK-MEL-28 melanoma
  GI50: > 100 µM
  TGI: > 100 µM
HCC-2998 colon
  GI50: > 100 µM
  TGI: > 100 µM
MDA-MB-435
  GI50: > 100 µM
  TGI: > 100 µM
HCT-116 colon
  GI50: > 100 µM
  TGI: > 100 µM
UACC-257 melanoma
  GI50: > 100 µM
  TGI: > 100 µM
TK-10 renal
  GI50: > 100 µM
  TGI: > 100 µM
HOP-62 NSCLC
  GI50: > 100 µM
  TGI: > 100 µM
NCI-H23 lung
  GI50: > 100 µM
  TGI: > 100 µM

## CCOC(=O)Cc1csc(Nc2ccc(OCC)cc2)n1
OVCAR-3 ovarian
  TGI: > 100 µM
SK-MEL-28 melanoma
  TGI: > 100 µM
HCC-2998 colon
  TGI: > 100 µM
HCT-116 colon
  TGI: > 100 µM
UACC-257 melanoma
  TGI: > 100 µM
TK-10 renal
  TGI: > 100 µM
HOP-62 NSCLC
  TGI: > 100 µM
NCI-H23 lung
  TGI: > 100 µM
SF-539 CNS
  TGI: > 100 µM

## O=C(OC1CCC2OOC1O2)c1ccc([N+](=O)[O-])cc1 (stereo unspecified)
OVCAR-3 ovarian
  TGI: > 100 µM
SK-MEL-28 melanoma
  TGI: > 100 µM
HCC-2998 colon
  TGI: > 100 µM
HCT-116 colon
  TGI: > 100 µM
UACC-257 melanoma
  TGI: > 100 µM
TK-10 renal
  TGI: > 100 µM
HOP-62 NSCLC
  TGI: > 100 µM
NCI-H23 lung
  TGI: > 100 µM
SF-539 CNS
  TGI: > 100 µM

## COc1ccc(Sc2nc3cc(N)cc(N)c3nc2-c2ccccc2)cc1
SK-MEL-28 melanoma
  GI50: 24.4 µM
  TGI: > 100 µM
MDA-MB-435
  GI50: > 100 µM
  TGI: > 100 µM
HCT-116 colon
  GI50: 14.7 µM
  TGI: > 100 µM
UACC-257 melanoma
  GI50: 43.2 µM
  TGI: > 100 µM
TK-10 renal
  GI50: 30.6 µM
  TGI: > 100 µM
HOP-62 NSCLC
  GI50: > 100 µM
  TGI: > 100 µM
NCI-H23 lung
  GI50: > 100 µM
  TGI: > 100 µM
SF-539 CNS
  GI50: 10 µM
  TGI: > 100 µM

## CCOC(=O)NC/C=C/COC1CCCCO1 (stereo unspecified)
SK-MEL-28 melanoma
  TGI: > 100 µM
HCC-2998 colon
  TGI: > 100 µM
HCT-116 colon
  TGI: > 100 µM
UACC-257 melanoma
  TGI: > 100 µM
TK-10 renal
  TGI: > 100 µM
HOP-62 NSCLC
  TGI: > 100 µM
SF-539 CNS
  TGI: > 100 µM

## Cc1cc(C)n(-c2ccnc3cc(Cl)ccc23)n1
OVCAR-3 ovarian
  TGI: > 100 µM
SK-MEL-28 melanoma
  TGI: > 100 µM
HCC-2998 colon
  TGI: > 100 µM
HCT-116 colon
  TGI: > 100 µM
UACC-257 melanoma
  TGI: > 100 µM
TK-10 renal
  TGI: > 100 µM
HOP-62 NSCLC
  TGI: > 100 µM
NCI-H23 lung
  TGI: > 100 µM
SF-539 CNS
  TGI: > 100 µM

## COc1cc2c(cc1OC)CC(=O)Nc1cc(OC)c(OC)cc1CC2
OVCAR-3 ovarian
  TGI: > 100 µM
SK-MEL-28 melanoma
  TGI: > 100 µM
HCC-2998 colon
  TGI: > 100 µM
HCT-116 colon
  TGI: > 100 µM
UACC-257 melanoma
  TGI: > 100 µM
TK-10 renal
  TGI: > 100 µM
HOP-62 NSCLC
  TGI: > 100 µM
NCI-H23 lung
  TGI: > 100 µM
SF-539 CNS
  TGI: 97.2 µM

## CCCCNC(=O)C1C(=O)N(CCCC)C(=O)/C1=N\N (stereo unspecified)
OVCAR-3 ovarian
  TGI: > 100 µM
SK-MEL-28 melanoma
  TGI: > 100 µM
HCC-2998 colon
  TGI: > 100 µM
HCT-116 colon
  TGI: > 100 µM
UACC-257 melanoma
  TGI: > 100 µM
TK-10 renal
  TGI: > 100 µM
HOP-62 NSCLC
  TGI: > 100 µM
NCI-H23 lung
  TGI: > 100 µM
SF-539 CNS
  TGI: > 100 µM

## C#CCN(Cc1nc2cc(C(F)(F)F)ccc2nc1-c1ccccc1)c1ccc(C)cc1
OVCAR-3 ovarian
  GI50: 3.7 µM
  TGI: 16.8 µM
SK-MEL-28 melanoma
  GI50: 13.9 µM
  TGI: > 41 µM
MDA-MB-435
  GI50: 2.73 µM
  TGI: 9.09 µM
HCT-116 colon
  GI50: 0.628 µM
  TGI: 15.5 µM
UACC-257 melanoma
  GI50: 19.5 µM
  TGI: 59 µM
TK-10 renal
  GI50: 15.4 µM
  TGI: > 39.6 µM
HOP-62 NSCLC
  GI50: 4.41 µM
  TGI: 33.9 µM
NCI-H23 lung
  GI50: 8.48 µM
  TGI: > 34.7 µM
SF-539 CNS
  GI50: 24.3 µM
  TGI: > 100 µM

## CC(N)(/C=C/c1ccccc1)C(=O)O (stereo unspecified)
OVCAR-3 ovarian
  TGI: > 100 µM
SK-MEL-28 melanoma
  TGI: > 100 µM
MDA-MB-435
  TGI: > 100 µM
HCT-116 colon
  TGI: > 100 µM
UACC-257 melanoma
  TGI: > 100 µM
TK-10 renal
  TGI: > 100 µM
HOP-62 NSCLC
  TGI: > 100 µM
NCI-H23 lung
  TGI: > 100 µM
SF-539 CNS
  TGI: > 100 µM

## [Cl][Hg][c]1ccc(Cl)s1
SK-MEL-28 melanoma
  GI50: 1.42 µM
  TGI: 2.87 µM
HCC-2998 colon
  GI50: 11.9 µM
  TGI: 26.4 µM
MDA-MB-435
  GI50: 2.08 µM
  TGI: 5.7 µM
HCT-116 colon
  GI50: 1.49 µM
  TGI: 2.97 µM
UACC-257 melanoma
  GI50: 1.54 µM
  TGI: 3.04 µM
TK-10 renal
  GI50: 1.66 µM
  TGI: 3.09 µM
HOP-62 NSCLC
  GI50: 4.29 µM
  TGI: 21.8 µM
NCI-H23 lung
  GI50: 2.69 µM
  TGI: 8.05 µM
SF-539 CNS
  GI50: 2.03 µM
  TGI: 4.46 µM

Source: PubChem BioAssay (NCI)
